# Results: patent publication US12491170B2, “Stable treprostinil prodrugs” (United Therapeutics Corporation, priority 2020, dated 2025)
# Where two headings read alike, the source gives them in different places.
# How the values were obtained:
# [1] = Stability in liver microsomes, dog
# [2] = Stability in liver microsomes, rat
# [3] = dog
# [4] = Stability in cryopreserved hepatocytes, human; details: for AUC: human
# [5] = Stability in liver microsomes, human; details: for AUC: human
# [6] = rat
# [7] = Stability in cryopreserved hepatocytes, dog; details: for AUC: dog
# [8] = Stability in cryopreserved hepatocytes, rat; details: for AUC: rat
SMILES,Trep Concentration 10 min [1],Trep Concentration 20 min [1],Trep Concentration 30 min [1],Trep Concentration 60 min [1],Trep Concentration 0 min [2],Trep Concentration 10 min [2],Trep Concentration 20 min [2],Trep Concentration 30 min [2],Trep Concentration 60 min [2],AUC [3],Trep Concentration (μM) 0 min [4],Trep Concentration (μM) 15 min [4],Trep Concentration (μM) 30 min [4],Trep Concentration (μM) 120 min [4],AUC [4],Trep Concentration 0 min [5],Trep Concentration 10 min [5],Trep Concentration 30 min [5],Trep Concentration 60 min [5],AUC [5],further results
CCCCCC(CCC1C(O)CC2Cc3c(cccc3OCC(=O)O)CC21)OC(=O)c1ccc(C(F)(F)F)cc1 (stereo not drawn) [LXII],0.188 µM,0.254 µM,0.3 µM,0.372 µM,0.0741 µM,0.0998 µM,0.124 µM,0.139 µM,0.139 µM,16.64 µmol·min/L,0 µM,0.0881 µM,0.14 µM,0.222 µM,19.86 µmol·min/L,0.0917 µM,0.141 µM,0.2 µM,0.206 µM,10.70 µmol·min/L,Trep Concentration 0 min [1]: 0.127 µM; Trep Concentration (μM) 60 min [4]: 0.194 µM; Trep Concentration 20 min [5]: 0.174 µM; AUC [6]: 7.47 µmol·min/L; Trep Concentration (μM) 0 min [7]: 0 µM; Trep Concentration (μM) 15 min [7]: 0.0486 µM; Trep Concentration (μM) 30 min [7]: 0.0833 µM; Trep Concentration (μM) 60 min [7]: 0.128 µM; Trep Concentration (μM) 120 min [7]: 0.166 µM; AUC [7]: 13.34 µmol·min/L; Trep Concentration (μM) 0 min [8]: 0.00378 µM; Trep Concentration (μM) 15 min [8]: 0.0946 µM; Trep Concentration (μM) 30 min [8]: 0.156 µM; Trep Concentration (μM) 60 min [8]: 0.227 µM; Trep Concentration (μM) 120 min [8]: 0.264 µM; AUC [8]: 23.09 µmol·min/L
CCCCCC(CCC1C(O)CC2Cc3c(cccc3OCC(=O)O)CC21)OC(=O)C12CC3CC(CC(C3)C1)C2 (stereo not drawn) [LXIX],0.57 µM,0.609 µM,0.696 µM,0.657 µM,0.0251 µM,0.0344 µM,0.0421 µM,0.0483 µM,0.0527 µM,38.15 µmol·min/L,0 µM,0.198 µM,0.294 µM,0.335 µM,34.85 µmol·min/L,0.321 µM,0.365 µM,0.36 µM,0.252 µM,19.91 µmol·min/L,Trep Concentration 0 min [1]: 0.517 µM; Trep Concentration (μM) 60 min [4]: 0.338 µM; Trep Concentration 20 min [5]: 0.367 µM; AUC [6]: 2.65 µmol·min/L; Trep Concentration (μM) 0 min [7]: 0.00877 µM; Trep Concentration (μM) 15 min [7]: 0.227 µM; Trep Concentration (μM) 30 min [7]: 0.262 µM; Trep Concentration (μM) 60 min [7]: 0.263 µM; Trep Concentration (μM) 120 min [7]: 0.236 µM; AUC [7]: 28.28 µmol·min/L; Trep Concentration (μM) 0 min [8]: 0 µM; Trep Concentration (μM) 15 min [8]: 0.0238 µM; Trep Concentration (μM) 30 min [8]: 0.0421 µM; Trep Concentration (μM) 60 min [8]: 0.0712 µM; Trep Concentration (μM) 120 min [8]: 0.119 µM; AUC [8]: 8.08 µmol·min/L
CCCCCC(CCC1C(O)CC2Cc3c(cccc3OCC(=O)O)CC21)OC(=O)c1ccccc1O (stereo not drawn) [LXI],0.0115 µM,0.0157 µM,0.0196 µM,0.0259 µM,0 µM,0 µM,0.00316 µM,0.00337 µM,0.00402 µM,1.09 µmol·min/L,0 µM,0.0213 µM,0.0378 µM,0.0701 µM,5.78 µmol·min/L,0.0209 µM,0.0312 µM,0.0389 µM,0.0332 µM,2.05 µmol·min/L,Trep Concentration 0 min [1]: 0.00725 µM; Trep Concentration (μM) 60 min [4]: 0.0556 µM; Trep Concentration 20 min [5]: 0.0361 µM; AUC [6]: 0.16 µmol·min/L; Trep Concentration (μM) 0 min [7]: 0 µM; Trep Concentration (μM) 15 min [7]: 0 µM; Trep Concentration (μM) 30 min [7]: 0.00299 µM; Trep Concentration (μM) 60 min [7]: 0.00396 µM; Trep Concentration (μM) 120 min [7]: 0.00663 µM; AUC [7]: 0.44 µmol·min/L; Trep Concentration (μM) 0 min [8]: 0 µM; Trep Concentration (μM) 15 min [8]: 0 µM; Trep Concentration (μM) 30 min [8]: 0.00373 µM; Trep Concentration (μM) 60 min [8]: 0.00634 µM; Trep Concentration (μM) 120 min [8]: 0.00941 µM; AUC [8]: 0.65 µmol·min/L
CCCCCC(CCC1C(O)CC2Cc3c(cccc3OCC(=O)O)CC21)OC(=O)c1ccc(O)cc1 (stereo not drawn) [LXVIII],0.0246 µM,0.0324 µM,0.0375 µM,0.0382 µM,0.00607 µM,0.00792 µM,0.0105 µM,0.0127 µM,0.0145 µM,1.98 µmol·min/L,0 µM,0.147 µM,0.194 µM,0.17 µM,20.45 µmol·min/L,0.201 µM,0.237 µM,0.252 µM,0.178 µM,13.55 µmol·min/L,Trep Concentration 20 min [5]: 0.246 µM; AUC [6]: 0.69 µmol·min/L; Trep Concentration (μM) 0 min [7]: 0 µM; Trep Concentration (μM) 15 min [7]: 0.0142 µM; Trep Concentration (μM) 30 min [7]: 0.00583 µM; Trep Concentration (μM) 60 min [7]: 0.00715 µM; Trep Concentration (μM) 120 min [7]: 0.0129 µM; AUC [7]: 1.05 µmol·min/L; Trep Concentration (μM) 0 min [8]: 0 µM; Trep Concentration (μM) 15 min [8]: 0 µM; Trep Concentration (μM) 30 min [8]: 0.00403 µM; Trep Concentration (μM) 60 min [8]: 0.00545 µM; Trep Concentration (μM) 120 min [8]: 0.00743 µM; AUC [8]: 0.56 µmol·min/L
CCCCCC(CCC1C(O)CC2Cc3c(cccc3OCC(=O)O)CC21)OC(=O)c1ccc(O)c(O)c1 (stereo not drawn) [LXVI],0 µM,0 µM,0.00396 µM,0.00602 µM,0 µM,0.00332 µM,0.00368 µM,0.00422 µM,0.00722 µM,0.17 µmol·min/L,0 µM,0.0209 µM,0.0147 µM,0.0237 µM,2.18 µmol·min/L,0.0131 µM,0.0155 µM,0.0168 µM,0.0141 µM,0.94 µmol·min/L,Trep Concentration 0 min [1]: 0 µM; Trep Concentration (μM) 60 min [4]: 0.0184 µM; AUC [6]: 0.26 µmol·min/L; Trep Concentration (μM) 0 min [7]: 0 µM; Trep Concentration (μM) 15 min [7]: 0 µM; Trep Concentration (μM) 30 min [7]: 0 µM; Trep Concentration (μM) 60 min [7]: 0 µM; Trep Concentration (μM) 120 min [7]: 0.00519 µM; AUC [7]: 0.16 µmol·min/L; Trep Concentration (μM) 0 min [8]: 0 µM; Trep Concentration (μM) 15 min [8]: 0 µM; Trep Concentration (μM) 30 min [8]: 0 µM; Trep Concentration (μM) 60 min [8]: 0 µM; Trep Concentration (μM) 120 min [8]: 0 µM; AUC [8]: 0.00 µmol·min/L
CCCCCC(CCC1C(O)CC2Cc3c(cccc3OCC(=O)O)CC21)OC(=O)COc1ccccc1 (stereo not drawn) [LXV],0.912 µM,0.864 µM,0.801 µM,0.728 µM,0.889 µM,0.898 µM,0.885 µM,0.888 µM,0.738 µM,49.22 µmol·min/L,0.0193 µM,0.559 µM,0.515 µM,0.39 µM,52.16 µmol·min/L,0.921 µM,0.762 µM,0.594 µM,0.351 µM,36.07 µmol·min/L,Trep Concentration 0 min [1]: 0.903 µM; Trep Concentration (μM) 60 min [4]: 0.452 µM; Trep Concentration 20 min [5]: 0.67 µM; AUC [6]: 51.11 µmol·min/L; Trep Concentration (μM) 0 min [7]: 0.0135 µM; Trep Concentration (μM) 15 min [7]: 0.484 µM; Trep Concentration (μM) 30 min [7]: 0.465 µM; Trep Concentration (μM) 60 min [7]: 0.406 µM; Trep Concentration (μM) 120 min [7]: 0.373 µM; AUC [7]: 47.28 µmol·min/L; Trep Concentration (μM) 0 min [8]: 0.0517 µM; Trep Concentration (μM) 15 min [8]: 0.379 µM; Trep Concentration (μM) 30 min [8]: 0.289 µM; Trep Concentration (μM) 60 min [8]: 0.237 µM; Trep Concentration (μM) 120 min [8]: 0.2 µM; AUC [8]: 29.24 µmol·min/L
